ChEMBL document CHEMBL1156829 (Proc Natl Acad Sci U S A, 2008)
pEC50: −log10 of the molar value.

Legend:
[1] = NOVARTIS: Cytotoxicity against human hepatocellular carcinoma cell line (Huh7); format: toxicity, cell-based, Huh-7; conditions: Huh7 cells (hepatocellular carcinoma cell line)
Plasmodium falciparum [2] = assay: NOVARTIS: Inhibition of Plasmodium falciparum W2 (drug-resistant) proliferation in erythrocyte-based infection assay; format: functional, organism-based; conditions: Plasmodium falciparum, W2; read-out: EC50
Plasmodium falciparum [3] = assay: NOVARTIS: Inhibition of Plasmodium falciparum 3D7 (drug-susceptible) proliferation in erythrocyte-based infection assay; format: functional, organism-based; conditions: Plasmodium falciparum, 3D7

Row | Compound | CC50 [1] | pEC50 (Plasmodium falciparum [2]) | pEC50 (Plasmodium falciparum [3])
1 | N=C(N)NN=Cc1cccc(OCc2ccc(Cl)c(Cl)c2)c1 | > 10000 nM | 5.77 | 5.70
2 | Cc1ccc2nc(Nc3nc(O)c4ccccc4n3)nc(C)c2c1 | > 10000 nM | < 5.79 | 6.24
3 | COc1ccc(N=C2NC(=O)/C(=C\c3ccc(N(C)C)cc3)S2)cc1 | > 10000 nM | < 5.78 | 5.99
4 | CSc1ccc(Cl)c(Cl)c1 | 2350 nM | 6.40 | 7.08
5 | COc1cc(Nc2nccn3c(-c4ccsc4)cnc23)cc(OC)c1OC | > 10000 nM | 5.78 | < 5.90
6 | Cc1ccc(S(=O)(=O)NC(Cc2ccccc2)C(=O)N2CCC(C3CCN(C(=O)c4ccc([N+](=O)[O-])o4)CC3)CC2)cc1 (stereo not given) | > 10000 nM | < 5.78 | 5.72
7 | CCCCC(=O)Nc1ccccc1-c1nnn(CC(=O)Nc2ccc3c(c2)OCCO3)n1 | > 10000 nM | < 5.78 | < 5.94
8 | N#CC1=C(N)Oc2c(c(=O)oc3ccccc23)C1c1ccoc1 (stereo not given) | > 10000 nM | < 5.78 | < 5.94
9 | CCCN1CCN(C(=O)CCNC(=O)Cn2cnc3ccccc3c2=O)CC1 | > 10000 nM | 5.80 | < 5.90
10 | O=C1NN=C(CC(=O)N2CC[C@@H](c3ccccc3)[C@H](O)C2)C2C=CC=CC12 (stereo not given in full) | > 10000 nM | < 5.80 | < 6.07
11 | CC1CCN(C(=O)CSc2nc(NCc3ccccc3)c3ccccc3n2)CC1 | > 10000 nM | < 5.80 | 6.17
12 | Cc1cccc(OCC(=O)NCCNC2=NS(=O)(=O)c3ccccc32)c1 | > 10000 nM | 5.78 | < 5.95
13 | CCOC(=O)c1c(NC(=O)CSc2nnc(CNC(=O)c3cccc(OC)c3)n2C2CCCCC2)sc2c1CCCC2 | > 10000 nM | < 5.78 | < 6.53
14 | CNc1nc(Cl)nc(Nc2ccccc2)n1 | > 10000 nM | 5.78 | < 6.32
15 | Cc1ccc(Nc2nc3c(N)nnc(N)c3nc2Nc2ccc(C)cc2)cc1 | 13300 nM | 5.66 | 5.21
16 | CCOC(=O)N1CCN(C(=O)c2cnc3ccc(C)cn3c2=O)CC1 | > 10000 nM | < 5.78 | < 6.45
17 | CCOC(=O)c1[nH]c(C)c(CNc2cccc(F)c2)c1C | > 10000 nM | 5.78 | 5.98
18 | COC(=O)C1=C(C)Nc2[nH]c(=S)[nH]c(=O)c2C1c1ccccc1F (stereo not given) | > 10000 nM | < 5.78 | 5.89
19 | COc1cccc(CN2CCC(O)(c3ccc4oc(C(=O)Nc5ccc(Cl)cc5)cc4c3)CC2)c1 | 24700 nM | 5.39 | 5.67
20 | O=c1c2ccccc2nc(/C=C/c2ccc([N+](=O)[O-])o2)n1-c1ccc(Br)cc1 | > 10000 nM | < 5.78 | 6.04
21 | CN(C)c1ccc(N/C=C/C(=O)C(C)(C)C)cc1 | > 10000 nM | 5.80 | 5.84
22 | Cc1ccc(Nc2nc3nonc3nc2N(C)C)cc1Cl | > 10000 nM | 5.79 | < 5.84
23 | COC(C(=NO)c1ccc(Cl)cc1)c1ccccc1 (stereo not given) | > 10000 nM | < 5.79 | < 6.04
24 | COc1ccc(-c2cnc3ccc(NC4CCOCC4)nn23)cc1OC | > 10000 nM | < 5.79 | < 6.03
25 | CC(C)CNC(=O)c1cnc(NCCCn2ccnc2)nc1NCC(C)C | > 10000 nM | 5.79 | 6.11
26 | COc1cc(NC(C)CCCN(Cc2ccc(F)cc2)C(=O)Nc2ccc(Br)cc2)c2ncccc2c1 (stereo not given) | 4240 nM | 6.16 | 6.03
27 | CCCCNC(=O)c1ccc2c(c1)N=C(CC(C)c1ccccc1)N(C1CCCCC1)C2 (stereo not given) | 48700 nM | 5.09 | 5.84
28 | COc1ccc(C2N=C(N)N=C(N)N2c2ccc(C)cc2)cc1 (stereo not given) | > 10000 nM | < 5.79 | 7.13

Row | Compound | CC50 [1] | pEC50 (Plasmodium falciparum [2]) | pEC50 (Plasmodium falciparum [3])
29 | CCOCCCN(C(=O)C(F)(F)F)C(C(=O)NC1CCCCC1)c1ccncc1 (stereo not given) | > 10000 nM | < 5.79 | 5.73
30 | COc1ccccc1C(=O)NNC(=O)c1ccccn1 | 8700 nM | 5.86 | 5.77
31 | COc1ccc(C(=O)/C(C#N)=C/NC2CCN(Cc3ccccc3)CC2)cc1 | > 10000 nM | < 5.80 | 6.59
32 | Cc1ccc2nc(-c3ccccc3)cc(C(=O)Nc3ccc(Cl)c(Cl)c3)c2c1 | > 10000 nM | 5.77 | < 5.90
33 | N#Cc1c(NC(=O)CCl)c(C(=O)c2ccccc2)n2c1CCC2 | > 74200 nM | < 4.90 | 6.53
34 | COc1cc(/C=C(\C#N)c2nc3ccccc3[nH]2)ccc1OCc1ccccc1Cl | > 10000 nM | 5.78 | < 5.90
35 | CCC(c1ccc(F)cc1)n1cc(C(=O)NCCCN2CCC(C)CC2)nn1 (stereo not given) | > 10000 nM | < 5.79 | < 6.19
36 | C=CCNC(=O)CSc1ccc(C(=O)Nc2ccc(Cl)cc2F)cc1[N+](=O)[O-] | > 10000 nM | < 5.79 | < 5.93
37 | N#C/C(=C\NC1CCN(Cc2ccccc2)CC1)C(=O)c1cccs1 | > 10000 nM | 5.79 | 6.66
38 | O=C(c1ccncc1)N1N=C(C(F)(F)F)CC1(O)c1cccc([N+](=O)[O-])c1 (stereo not given) | > 10000 nM | < 5.77 | < 5.91
39 | Cc1cc(Nc2ccc(Br)cc2)nc2ccccc12 | > 10000 nM | 5.77 | < 5.90
40 | O=C(Cn1c2ccccc2c(=O)c2cc(Cl)ccc21)Nc1cccc(C(F)(F)F)c1 | > 10000 nM | 5.78 | < 5.87
41 | CC[n+]1c(/C=C(C)/C=C2\Sc3ccccc3N2CCO)sc2ccccc21 | > 10000 nM | 5.78 | < 5.90
42 | FC(F)(F)c1cccc(Nc2nc3nonc3nc2Nc2ccc(Cl)cc2)c1 | > 10000 nM | 5.79 | < 5.88
43 | COC(=O)C1=C(OC)C(=O)OC12C=CC(=O)C=C2 | 2520 nM | 6.37 | 5.65
44 | CC1CC(C)CN(c2ccc([N+](=O)[O-])cc2-c2nnn[nH]2)C1 (stereo not given) | > 10000 nM | < 5.79 | < 6.08
45 | Cc1ccc(N2C(=O)CC(NCCCN3CCOCC3)C2=O)cc1 (stereo not given) | > 10000 nM | 5.79 | < 5.89
46 | O=C(Nc1ccc(C(c2ccccc2)(c2ccccc2)c2ccc(NC(=O)c3cccc([N+](=O)[O-])c3)cc2)cc1)c1cccc([N+](=O)[O-])c1 | > 10000 nM | 5.77 | < 5.90
47 | CC(C)c1ccc(C=NNC(=O)c2ccccc2O)cc1 | > 10000 nM | 5.78 | < 5.90
48 | O=c1nc(/C=C/c2ccc(Cl)cc2)oc2ccccc12 | > 10000 nM | < 5.78 | 5.73
49 | O=C(Cn1c(=O)oc2cc(Cl)ccc21)c1ccccc1 | 28400 nM | 5.35 | < 4.90
50 | Cc1nnc2sc(SCc3ccc([N+](=O)[O-])cc3)nn2c1=O | > 10000 nM | < 5.78 | < 6.32
51 | CN(C)CCNc1cc(-c2cccc(C(F)(F)F)c2)nc(-c2ccncc2)n1 | > 10000 nM | 5.77 | < 5.90
52 | CC1=C(C(=O)OCCC(C)C)C(c2ccccc2)C(C(=O)OCCC(C)C)=C(C)N1 | > 10000 nM | < 5.79 | < 6.04
53 | COc1ccc(C(NC(=O)COc2ccccc2)c2cc(Cl)c3cccnc3c2O)cc1OC (stereo not given) | 18500 nM | 5.51 | 5.33
54 | COc1ccc(-c2cc(C(=O)NCc3cccnc3)no2)cc1OC | > 10000 nM | 5.77 | < 5.89
55 | COc1ccc(C2C(C(=O)NCCN(C)C)c3ccccc3C(=O)N2C2CCCCC2)cc1 (stereo not given) | > 10000 nM | 5.79 | < 6.37
